Test results from patent publication US20230123334A1, “AMINO LIPID COMPOUND, PREPARATION METHOD THEREFOR, AND APPLICATION THEREOF” (SHENZHEN SHENXIN BIOTECHNOLOGY CO., LTD., priority 2020, published 2023).

Tested on: HEK293 cells
Experiment: Preliminary screening as DNA vectors, GFP transfection of HEK293 cells
Assay type: cell-based
Settings: amino lipid/DOPE liposome with 75 ng plasmid DNA (psin-EGFP-IRES-Puro); number of GFP-expressing cells divided by total nuclei (Hoechst)
Method in brief: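 HEK293 cells in DMEM/10% FBS transfected with 75 ng EGFP plasmid per well complexed with amino lipid/DOPE liposomes in pH 5.6 sodium acetate. Hoechst nuclear stain added 20-24 h post-transfection, then cells cultured another 20-24 h. Confocal imaging gives GFP-positive cells as % of total nuclei.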

Row | SMILES | Absolute DNA transfection efficiency in HEK293 cells
1 | CCCCCCCCCCCNc1nc(NCC2CCN(C)CC2)nc(SCCCCCC)n1 [S6N11 D10] | 7.9%
2 | CCCCCCCCCCCCCCCCCCSc1nc(NCCCCCCCCCCCC)nc(NCCN(CC)CC)n1 [S18N12 D7] | 0.5%
3 | CCCCCCCCCCCCCCCCCCNc1nc(NCCCN2CCOCC2)nc(SCCCCCCCCCCCC)n1 [S12N18 D8] | 0.0%
4 | CCCCCCCCCSc1nc(NCCN(C)C)nc(SCCCCCCC)n1 [S7S9 D1] | 10.8%
5 | CCCCCCCCCCCCCCSc1nc(NCCCCCCCC)nc(NCCCN2CCOCC2)n1 [S14N8 D8] | 9.8%
6 | CCCCCCCCCCCSc1nc(NCCCCCC)nc(NCCCN(C)C)n1 [S11N6 D6] | 29.3%
7 | CCCCCCCCCSc1nc(NCCCCCC)nc(NCC2CCN(C)CC2)n1 [S9N6 D10] | 9.7%
8 | CCCCCCCCCCCSc1nc(NCCN2CCCCC2)nc(SCCCCCCCC)n1 [S8S11 D4] | 8.5%
9 | CCCCCCCCCCSc1nc(NCCN2CCN(C)CC2)nc(SCCCCCCCC)n1 [S8S10 D5] | 19.5%
10 | CCCCCCCCCCCCCCCCCCNc1nc(NCCN(C)C)nc(SCCCCCCCC)n1 [S8N18 D1] | 4.8%
11 | CCCCCCCCCCCCN(CCCCCCCCCCCC)c1nc(NCCN2CCCCC2)nc(SCCCCCCC)n1 [S7^2N12 D4] | 0.0%
12 | CCCCCCCCCCCCCCCCNc1nc(NCCN(CC)CC)nc(SCCCCCCCC)n1 [S8N16 D7] | 5.2%
13 | CCCCCCCCCCCCCNc1nc(NCC2CCN(C)CC2)nc(SCCCCCCCCCC)n1 [S10N13 D10] | 3.2%
14 | CCCCCCCCSc1nc(NCCCCCC)nc(NCCCN2CCN(C)CC2)n1 [S8N6 D9] | 2.2%
15 | CCCCCCCCCCCCCCCCSc1nc(NCCCCCCCC)nc(NCCN2CCOCC2)n1 [S16N8 D2] | 14.6%
16 | CCCCCCCCCCCCSc1nc(NCCCCCCCCC)nc(NCCN(CC)CC)n1 [S12N9 D7] | 0.8%
17 | CCCCCCCCCCCCNc1nc(NCCN2CCN(C)CC2)nc(SCCCCCCCC)n1 [S8N12 D5] | 41.7%
18 | CCCCCCCCCCCCSc1nc(NCCCCCC)nc(NCCN(C)C)n1 [S12N6 D1] | 0.3%
19 | CCCCCCCCCCCCCNc1nc(NCCCN(C)C)nc(SCCCCCCCCCC)n1 [S10N13 D6] | 7.9%
20 | CCCCCCCCCCCCCCSc1nc(NCCCCCCCCCCCC)nc(NCCN(C)C)n1 [S14N12 D1] | 15.3%
21 | CCCCCCCCCCCCCCCNc1nc(NCCCN2CCN(C)CC2)nc(SCCCCCCCCCCCC)n1 [S12N15 D9] | 0.2%
22 | CCCCCCCCCCCCCCSc1nc(NCCCCCCCCCCCCC)nc(NCCN(C)C)n1 [S14N13 D1] | 1.1%
23 | CCCCCCCCCCCCCCCCSc1nc(NCCCCCC)nc(NCCN2CCCCC2)n1 [S16N6 D4] | 6.0%
24 | CCCCCCCCCCCCCCCSc1nc(NCCCN(C)C)nc(N(CCCCCCCCCCCC)CCCCCCCCCCCC)n1 [S15^2N12 D6] | 0.0%
25 | CCCCCCCCSc1nc(NCCCN2CCOCC2)nc(SCCCCCCC)n1 [S7S8 D8] | 3.7%

Row | SMILES | Absolute DNA transfection efficiency in HEK293 cells
26 | CCCCCCCCCCCCCCCNc1nc(NCC2CCN(C)CC2)nc(SCCCCCCCCCCCCCC)n1 [S14N15 D10] | 0.7%
27 | CCCCCCCCCNc1nc(NCCN(C)C)nc(SCCCCCC)n1 [S6N9 D1] | 0.1%
28 | CCCCCCCCCCCCCCCCSc1nc(NCCN(CC)CC)nc(SCCCCCC)n1 [S6S16 D7] | 3.7%
29 | CCCCCCCCCCCCCCCNc1nc(NCCN(CC)CC)nc(SCCCCCCCCC)n1 [S9N15 D7] | 4.6%
30 | CCCCCCCCCCCCSc1nc(NCCCCCCCCC)nc(NCCCN2CCN(C)CC2)n1 [S12N9 D9] | 10.9%
31 | CCCCCCCCCCCCCCCCNc1nc(NCCCN(C)C)nc(SCCCCCCCCCCCCCCCC)n1 [S16N16 D6] | 0.1%
32 | CCCCCCCCCCCCCNc1nc(NCCN2CCCC2)nc(SCCCCCCCC)n1 [S8N13 D3] | 30.5%
33 | CCCCCCCCCCCCCCSc1nc(NCCN(CC)CC)nc(SCCCCCC)n1 [S6S14 D7] | 4.7%
34 | CCCCCCCCCSc1nc(NCCCCCCCC)nc(NCCN(C)C)n1 [S9N8 D1] | 37.3%
35 | CCCCCCCCCCCCCCCCCCNc1nc(NCCCN2CCOCC2)nc(SCCCCCCC)n1 [S7N18 D8] | 5.9%
36 | CCCCCCCNc1nc(NCCN2CCCC2)nc(SCCCCCC)n1 [S6N7 D3] | 0.0%
37 | CCCCCCCCCCSc1nc(NCCCCCCC)nc(NCC2CCN(C)CC2)n1 [S10N7 D10] | 1.1%
38 | CCCCCCCCCCCCCNc1nc(NCCCN2CCN(C)CC2)nc(SCCCCCCC)n1 [S7N13 D9] | 36.9%
39 | CCCCCCNc1nc(NCCN2CCOCC2)nc(SCCCCCC)n1 [S6N6 D2] | 0.0%
40 | CCCCCCCCSc1nc(NCC2CCN(C)CC2)nc(SCCCCCC)n1 [S6S8 D10] | 24.1%
41 | CCCCCCCCCCCCCCSc1nc(NCCCCCCCCCCC)nc(NCCN2CCOCC2)n1 [S14N11 D2] | 12.5%
42 | CCCCCCSc1nc(NCCN2CCN(C)CC2)nc(SCCCCCC)n1 [S6S6 D5] | 9.1%
43 | CCCCCCCCNc1nc(NCCN2CCCCC2)nc(SCCCCCC)n1 [S6N8 D4] | 1.7%
44 | CCCCCCCCCCCCCCCCSc1nc(NCCCCCCCCCCCCCCC)nc(NCCN2CCOCC2)n1 [S16N15 D2] | 0.0%
45 | CCCCCCCCCSc1nc(NCCN(C)C)nc(SCCCCCC)n1 [S6S9 D1] | 2.6%
46 | CCCCCCCCNc1nc(NCCN2CCOCC2)nc(SCCCCCCCC)n1 [S8N8 D2] | 1.5%
47 | CCCCCCCCCCCCCCCCCCNc1nc(NCC2CCN(C)CC2)nc(SCCCCCCCCCCCC)n1 [S12N18 D10] | 3.7%
48 | CCCCCCCCCCCCCCCNc1nc(NCCN2CCCCC2)nc(SCCCCCCCCCCCCCCC)n1 [S15N15 D4] | 0.5%
49 | CCCCCCCCCCCCCCCCCCNc1nc(NCCCN(C)C)nc(SCCCCCC)n1 [S6N18 D6] | 21.8%
50 | CCCCCCCCCCCCSc1nc(NCCCCCCCCCCC)nc(NCCCN(C)C)n1 [S12N11 D6] | 14.9%

Row | SMILES | Absolute DNA transfection efficiency in HEK293 cells
51 | CCCCCCCCCCCCCCCCCCSc1nc(NCCCCCCCCCCCC)nc(NCCN(C)C)n1 [S18N12 D1] | 1.3%
52 | CCCCCCCCCCCCCCSc1nc(NCCN2CCCCC2)nc(SCCCCCCC)n1 [S7S14 D4] | 9.1%
53 | CCCCCCCCCCCCSc1nc(NCCCN(C)C)nc(N(CCCCCCCCCCCC)CCCCCCCCCCCC)n1 [S12^2N12 D6] | 0.3%
54 | CCCCCCCCCCCCCCCCCCSc1nc(NCCCCCCCCCCCCC)nc(NCCN2CCCC2)n1 [S18N13 D3] | 2.8%
55 | CCCCCCCCCSc1nc(NCCCN2CCOCC2)nc(SCCCCCC)n1 [S6S9 D8] | 2.0%
56 | CCCCCCCCCCCCCCSc1nc(NCCCCCCCCCCCC)nc(NCCN2CCOCC2)n1 [S14N12 D2] | 1.6%
57 | CCCCCCNc1nc(NCCCN(C)C)nc(SCCCCCC)n1 [S6N6 D6] | 0.0%
58 | CCCCCCCCCCCCCCCCCCNc1nc(NCCN(C)C)nc(SCCCCCCCCCC)n1 [S10N18 D1] | 9.0%
59 | CCCCCCCCCCCCN(CCCCCCCCCCCC)c1nc(NCCN(CC)CC)nc(SCCCCCCCC)n1 [S8^2N12 D7] | 0.1%
60 | CCCCCCCCCCCCCCCCCCSc1nc(NCCCCCCCCCCCCC)nc(NCCN2CCOCC2)n1 [S18N13 D2] | 0.0%
61 | CCCCCCCCCCCCCCCCCCNc1nc(NCCN2CCCC2)nc(SCCCCCCCC)n1 [S8N18 D3] | 6.7%
62 | CCCCCCCCCCCCCCCCCCSc1nc(NCC2CCN(C)CC2)nc(SCCCCCC)n1 [S6S18 D10] | 34.7%
63 | CCCCCCCCCCCCCCCCCCNc1nc(NCCN2CCCC2)nc(SCCCCCCCCCCCCCCCCCC)n1 [S18N18 D3] | 0.0%
64 | CCCCCCCCCCCCCCSc1nc(NCCCCCCCCCCC)nc(NCCN(CC)CC)n1 [S14N11 D7] | 8.6%
65 | CCCCCCCCCCCNc1nc(NCCN(CC)CC)nc(SCCCCCCC)n1 [S7N11 D7] | 9.6%
66 | CCCCCCCSc1nc(NCCCCCC)nc(NCCN2CCCC2)n1 [S7N6 D3] | 34.7%
67 | CCCCCCCCCCCNc1nc(NCCN2CCOCC2)nc(SCCCCCCCCC)n1 [S9N11 D2] | 16.2%
68 | CCCCCCCCCCCCCCCCCCSc1nc(NCCCCCCCCCCCCCCC)nc(NCCN(CC)CC)n1 [S18N15 D7] | 0.1%
69 | CCCCCCCCCCSc1nc(NCCCN(C)C)nc(SCCCCCC)n1 [S6S10 D6] | 20.9%
70 | CCCCCCCCCCCCCCCCSc1nc(NCCCCCCC)nc(NCCCN2CCN(C)CC2)n1 [S16N7 D9] | 9.8%
71 | CCCCCCCCCCCCCCCNc1nc(NCCN2CCCC2)nc(SCCCCCCCCCCCCCCC)n1 [S15N15 D3] | 0.8%
72 | CCCCCCCCCCCCCCCCNc1nc(NCCCN2CCN(C)CC2)nc(SCCCCCCCCC)n1 [S9N16 D9] | 20.3%
73 | CCCCCCCCCCCCCCCSc1nc(NCCCCCCCCCCC)nc(NCCN(CC)CC)n1 [S15N11 D7] | 9.3%
